Consider 22 molecules from PubChem BioAssay (NCI).

Some test systems named below: RXF 393 renal; OVCAR-4 ovarian; OVCAR-5 ovarian; A549 NSCLC; SF-295 CNS; M14 melanoma; NCI-H226 lung; SW-620 colon; DU-145 prostate; KM12 colon.
Common to all, as to assay: inhibition of tumour cell growth, NCI panel, 48 h

Converted amounts (≈) assume the structure as drawn. “And” between values parts separate entries of the source, which are not always exact repeats. Equal entries are not always repeated.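 Interpolation was linear, between the two tested concentrations surrounding the appropriate level; five concentrations were tested over 48 hours in 96-well plates. Abbreviation: GI50, concentration required for 50% inhibition of growth. TGI: concentration producing complete growth inhibition.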

Take `CCOC(=O)C1CCn2c(nc3c2c(=O)n(C)c(=O)n3C)S1` (centres undefined): the TGI in the assay on RXF 393 renal, in the assay on OVCAR-4 ovarian, with OVCAR-5 ovarian, in the assay on A549 NSCLC, in the assay with SF-295 CNS and in the assay on M14 melanoma was greater than 100 µM in each case. Besides, the TGI in the assay on NCI-H226 lung and in the assay on SW-620 colon was greater than 100 µM in each case.
`COC(=O)C1C(O)CCC2CN3CCc4c([nH]c5cccc(OC)c45)C3CC21` (centres undefined): the TGI in the assay with RXF 393 renal, with OVCAR-4 ovarian, in the assay with OVCAR-5 ovarian, in the assay with A549 NSCLC, with DU-145 prostate and with SF-295 CNS was greater than 100 µM in each case. Moreover, the TGI with M14 melanoma, with NCI-H226 lung, in the assay on KM12 colon and in the assay with SW-620 colon was greater than 100 µM each time.
`O=C(CCN1CC2CCC(CC2)C1)c1cccs1`: the TGI was 37 µM with RXF 393 renal; greater than 74.6 µM in the assay with OVCAR-4 ovarian; 33.1 µM with OVCAR-5 ovarian; greater than 57.6 µM in the assay on A549 NSCLC; 33.8 µM in the assay with DU-145 prostate; greater than 100 µM in the assay with SF-295 CNS. Also, the TGI in the assay on M14 melanoma is 31.8 µM; with NCI-H226 lung it was greater than 100 µM; with KM12 colon it was 40.7 µM; in the assay on SW-620 colon, 12.2 µM.
Regarding `N#CC(c1ccccc1)N1CCCN(C(C#N)c2ccccc2)C1c1ccccc1O` (centres undefined), the TGI in the assay on RXF 393 renal, with OVCAR-4 ovarian, in the assay on OVCAR-5 ovarian, with A549 NSCLC, in the assay with DU-145 prostate and in the assay on SF-295 CNS was greater than 100 µM in each case. The TGI with M14 melanoma, in the assay with NCI-H226 lung, in the assay on KM12 colon and with SW-620 colon was greater than 100 µM each time.
Regarding `CC1(C)CC(=O)C2=C(C1)NC(SSC1=C(C#N)C(c3ccc(F)cc3)C3=C(CC(C)(C)CC3=O)N1)=C(C#N)C2c1ccc(F)cc1` (centres undefined), the GI50 was 21.4 µg/mL (≈ 32.7 µM) in the assay on RXF 393 renal; 27.7 µg/mL (≈ 42.3 µM) in the assay with OVCAR-4 ovarian; 106 µg/mL (≈ 162 µM) with OVCAR-5 ovarian; 15 µg/mL (≈ 22.9 µM) with A549 NSCLC; 15 µg/mL (≈ 22.9 µM) in the assay on DU-145 prostate; 150 µg/mL (≈ 229 µM) in the assay with SF-295 CNS. Moreover, the GI50 in the assay on M14 melanoma is 22.6 µg/mL (≈ 34.5 µM); in the assay with KM12 colon, 52.9 µg/mL (≈ 80.7 µM); in the assay on SW-620 colon it was 6.93 µg/mL (≈ 10.6 µM). For the same molecule, the TGI is 41.1 µg/mL in the assay with RXF 393 renal; 52.7 µg/mL in the assay with OVCAR-4 ovarian; greater than 150 µg/mL with OVCAR-5 ovarian; 15 µg/mL with A549 NSCLC; 15 µg/mL with DU-145 prostate; greater than 150 µg/mL with SF-295 CNS. The TGI with M14 melanoma is 49.5 µg/mL; in the assay with KM12 colon it was greater than 150 µg/mL; in the assay with SW-620 colon, 25 µg/mL.
On to `C[C@]12CCC(=O)C=C1CC[C@@H]1[C@@H]2[C@@H](O)C[C@@]2(C)[C@H]1CC[C@]2(O)C(=O)CO`, for which the TGI with RXF 393 renal, with OVCAR-4 ovarian, in the assay on OVCAR-5 ovarian, with A549 NSCLC, in the assay with DU-145 prostate and in the assay with SF-295 CNS was greater than 100 µM each time. The TGI in the assay with M14 melanoma, with NCI-H226 lung, with KM12 colon and with SW-620 colon was greater than 100 µM each time.
In the case of `CC(=O)N(C)c1ccc2c(ccc[n+]2[O-])c1[N+](=O)[O-]`, the TGI in the assay on RXF 393 renal, in the assay on OVCAR-4 ovarian, in the assay with OVCAR-5 ovarian, in the assay with A549 NSCLC, with SF-295 CNS and in the assay on M14 melanoma was greater than 100 µM in each case. Further, the TGI in the assay with NCI-H226 lung, in the assay on KM12 colon and in the assay on SW-620 colon was greater than 100 µM in each case.
For `Nc1nc(N)c2c(n1)NC(c1ccccc1)CC(/C=C/c1ccc(Cl)cc1)=N2` (centres undefined), the TGI with RXF 393 renal was determined as 16.7 µM; in the assay on OVCAR-4 ovarian it was 20.5 µM; with OVCAR-5 ovarian, 32.5 µM; in the assay on A549 NSCLC it was 60.8 µM; in the assay on DU-145 prostate it was 24.4 µM; in the assay on SF-295 CNS, 36.2 µM. In addition, the TGI with M14 melanoma came to 28.3 µM; in the assay with NCI-H226 lung it was 27.7 µM; in the assay on KM12 colon it was 13.6 µM; in the assay with SW-620 colon, 26.8 µM.
With `O=[n+]1c2c(n([O-])c3ccccc31)-c1cccc3cccc-2c13`, the TGI with RXF 393 renal, with OVCAR-4 ovarian, in the assay on A549 NSCLC, in the assay with DU-145 prostate, in the assay with SF-295 CNS and in the assay on M14 melanoma was greater than 100 µM throughout. Besides, the TGI in the assay on NCI-H226 lung, with KM12 colon and in the assay with SW-620 colon was greater than 100 µM in each case.
In the case of `CC1(C)CCC2(C(=O)OC3OC(CO)C(O)C(O)C3O)CCC3(C)C(=CCC4C5(C)CCC(OC6OC(CO)C(O)C(O)C6O)C(C)(C)C5CCC43C)C2C1` (centres undefined), the TGI with RXF 393 renal, in the assay on OVCAR-4 ovarian, in the assay with OVCAR-5 ovarian, with A549 NSCLC, in the assay with DU-145 prostate and with SF-295 CNS was greater than 25 µM throughout. In addition, the TGI is greater than 25 µM with M14 melanoma, greater than 25 µM in the assay on NCI-H226 lung, 19 µM in the assay with KM12 colon and greater than 25 µM in the assay with SW-620 colon.
For `COc1ccc(/C=C(\C#N)c2nc(N)nc(N3N=C(C)CC3(C)C)n2)c(O)c1`, the TGI with RXF 393 renal came to 33.4 µM; in the assay on OVCAR-4 ovarian it was 30.4 µM; with OVCAR-5 ovarian, 34.2 µM; with A549 NSCLC, 44.5 µM; with DU-145 prostate, 37.7 µM; in the assay on SF-295 CNS, 43 µM. Besides, the TGI in the assay with M14 melanoma is 35.6 µM; in the assay on NCI-H226 lung, 35.9 µM; with KM12 colon, 29.2 µM.
In the case of `[O-][N+](CCO)(CCO)c1ncnc2nc[nH]c12`, the TGI in the assay on RXF 393 renal, with OVCAR-4 ovarian, with OVCAR-5 ovarian, in the assay on A549 NSCLC, with DU-145 prostate and in the assay on SF-295 CNS was greater than 100 µM throughout. Also, the TGI in the assay with M14 melanoma, in the assay with NCI-H226 lung, with KM12 colon and in the assay with SW-620 colon was greater than 100 µM throughout.
With `COC(=O)C1C(C)N1C` (centres undefined), the TGI with RXF 393 renal, in the assay on OVCAR-4 ovarian, in the assay on A549 NSCLC, with M14 melanoma, in the assay with NCI-H226 lung and in the assay on KM12 colon was greater than 100 µM in each case. In addition, in the assay on SW-620 colon, the TGI was greater than 100 µM.
In the case of `O=S1(=O)OC(c2ccc(O)cc2)(c2ccc(O)cc2)c2ccccc21`, the TGI in the assay on RXF 393 renal, in the assay on OVCAR-4 ovarian, in the assay on OVCAR-5 ovarian, in the assay with A549 NSCLC, with DU-145 prostate and in the assay with SF-295 CNS was greater than 100 µM each time. The TGI in the assay on M14 melanoma, in the assay on NCI-H226 lung, in the assay on KM12 colon and in the assay with SW-620 colon was greater than 100 µM each time.
Regarding `CC(Sc1ccccc1)C(CO)(CO)[N+](=O)[O-]` (centres undefined), the TGI was 31.3 µM in the assay with RXF 393 renal; 32.1 µM in the assay with OVCAR-4 ovarian; 36.9 µM with OVCAR-5 ovarian; 34.1 µM in the assay on A549 NSCLC; 28.9 µM in the assay with SF-295 CNS; 32.9 µM in the assay on M14 melanoma. The results for the TGI in the assay with NCI-H226 lung and with SW-620 colon were 33 µM and 28.4 µM, respectively.
On to `C[C@]12CC[C@@H]3c4ccccc4CC[C@H]3[C@@H]1CC[C@@H]2O`, for which the TGI in the assay with RXF 393 renal, with A549 NSCLC, in the assay on SF-295 CNS, with M14 melanoma, with KM12 colon and with SW-620 colon was greater than 100 µM each time.
As to `CC[C@@]1(O)C(=O)OCc2c1cc1n(c2=O)Cc2c-1nc1ccc(O)cc1c2CC[Si](C)(C)C`, the TGI is 0.0494 µM and 0.0625 µM with RXF 393 renal; 0.0538 µM with OVCAR-4 ovarian; 0.267 µM and 0.375 µM in the assay on OVCAR-5 ovarian; 0.24 µM and 0.167 µM in the assay on A549 NSCLC; 0.00129 µM in the assay with DU-145 prostate; 0.0296 µM in the assay with SF-295 CNS. Moreover, the TGI with M14 melanoma is 0.0151 µM; in the assay with KM12 colon, 0.0659 µM; with SW-620 colon, greater than 100 µM. In addition, the GI50 in the assay with NCI-H226 lung is less than 0.001 µM.
Turning to `Clc1ccc(Nc2nc(Cl)c3[nH]cnc3n2)cc1Cl`, the TGI with RXF 393 renal was 81.2 µM; with OVCAR-4 ovarian it was greater than 100 µM; with OVCAR-5 ovarian, greater than 100 µM; in the assay with A549 NSCLC it was greater than 100 µM; in the assay on DU-145 prostate, greater than 100 µM; in the assay with SF-295 CNS it was 79.7 µM. The TGI with M14 melanoma was greater than 100 µM; in the assay on NCI-H226 lung, greater than 100 µM; in the assay with KM12 colon, 64.7 µM; in the assay with SW-620 colon, greater than 100 µM.
As to `Cc1cc(O)c(C(C)C)cc1CN1CCCCC1`, the TGI in the assay on RXF 393 renal, in the assay on OVCAR-4 ovarian, in the assay on OVCAR-5 ovarian, in the assay with A549 NSCLC, in the assay with DU-145 prostate and with SF-295 CNS was greater than 100 µM each time. For the same molecule, the TGI with M14 melanoma, in the assay on NCI-H226 lung, with KM12 colon and in the assay on SW-620 colon was greater than 100 µM each time.
As to `CC(=O)OC1CC(O)CC2=CCC3C4CCC(C(C)(O)C(O)CC5COC(=O)C5C)C4(C)CCC3C21C` (centres undefined), the TGI with RXF 393 renal, in the assay with OVCAR-4 ovarian, in the assay with OVCAR-5 ovarian, in the assay with A549 NSCLC, in the assay with DU-145 prostate and with SF-295 CNS was greater than 25 µM each time. The TGI in the assay with M14 melanoma, in the assay on NCI-H226 lung, with KM12 colon and with SW-620 colon was greater than 25 µM each time.
As for `C/C(=N\NC(=O)c1cccnc1)c1cccc(/C(C)=N/NC(=O)c2cccnc2)n1`, the TGI in the assay on OVCAR-5 ovarian was 8.28 µM; with A549 NSCLC it was 34.7 µM; with SF-295 CNS, 20.5 µM; with M14 melanoma, 13.6 µM; in the assay on KM12 colon, greater than 100 µM; in the assay with SW-620 colon, greater than 100 µM.
On to `Nc1ccc2c(c1)C(=O)N(O)C2=O`, for which the TGI in the assay with RXF 393 renal, in the assay with OVCAR-4 ovarian, in the assay on OVCAR-5 ovarian, in the assay on A549 NSCLC, with SF-295 CNS and in the assay with M14 melanoma was greater than 100 µM in each case. Further, the TGI in the assay with NCI-H226 lung, with KM12 colon and in the assay with SW-620 colon was greater than 100 µM each time.
